Assay results from patent US20070259866A1, “Method of Adenovirus, HIV and HPV Prophylaxis” (priority 1999, published 2007).
Values joined by “and” are separate entries in the source; they are usually repeats but may differ in a detail not shown here. Equal values may be shown once. “Also recorded” adds a separate entry of the source.

Assays:
adenovirus = test: Inhibition of adenovirus infection in 293T cells in vitro; format: cell-based
Text: Compound 96 inhibited adenovirus infection 100% in 293T cells in vitro.

varicella-zoster virus = test: Inhibition of varicella-zoster virus infection in vitro; format: cell-based
Text: Compound 96 inhibited varicella-zoster virus infection >98% in vitro.

[1] = test system: NL-HX (T cell-tropic isolate) Virus; test: Inactivation of HIV stock by 1 hr drug treatment, then PBMC infection, fluorescent focus assay (NL-HX); format: cell-based, Human Immunodeficiency Virus (HIV); conditions: for Average # infected cells/area / # infected cells/area (~500 cells): 8 days; for # infected cells/area (~500 cells): single area counts
Experimental: In a study of the prophylactic effects of Compound 96 on Human Immunodeficiency Virus (HIV), virus stock solutions were inactivated by treatment with Compound 96. Stock solutions of viral types NL-HX-ADA having a p24 concentration of 4.1 μg/ml and NL-HX (P122) having a p24 concentration of 3.8 μg/ml were used for the study, along with a stock solution of Compound 96 having a concentration of 20 mg/ml in RPMI media.
Concentrated stock solution of viruses were treated for 1 hr with equal volume of medium containing the drug at the following concentrations:
(§1) After the 1 hr treatment period, the virus-drug solutions were diluted 1:1,000 with complete medium, and then mixed with an equal volume of Peripheral Blood Mononucleocyte (PBMC) cells, for a final dilution of virus and drug of 1:4,000.
(§2) The infected cultures were then incubated without any washing or other changes in media for 4 days (for the M-tropic NL-HX-ADA type) and 8 days (for the T-tropic NL-HX type). The cultures were then assayed for infection using standard fluorescent focus assays to quantitate infected cells.

[2] = test system: NL-HX-ADA (macrophage-tropic isolate) Virus; test: Control infections: untreated NL-HX-ADA virus added to PBMC cultures containing the final dilution of the drug; format: cell-based, Human Immunodeficiency Virus (HIV); conditions: for Control culture: # infected cells/area (~500 cells) / Control culture: Average # infected cells/area: untreated virus; for Control culture: # infected cells/area (~500 cells): single area counts
Experimental: as §1, §2
(§3) Control infections were performed by adding untreated viruses at a p24 concentration of 1 ng/ml into cultures containing the final dilution of the drug. This controlled for any residual effect the diluted drug may have on the health of the PBMC culture and their ability to replicate virus.

[3] = test system: NL-HX (T cell-tropic isolate) Virus; test: Control infections: untreated NL-HX virus added to PBMC cultures containing the final dilution of the drug; format: cell-based, Human Immunodeficiency Virus (HIV); conditions: for Control culture: # infected cells/area (~500 cells) / Control culture: Average # infected cells/area: untreated virus; for Control culture: # infected cells/area (~500 cells): single area counts
Experimental: as §1, §2, §3

[4] = Mouse mortality, survival and weight change in the HPV-11 xenograft SCID mouse experiment; format: in vivo, scid/scid mice; conditions: for Mouse Status at the end of the Experiment: Alive / Mouse Status at the end of the Experiment: Dead: of 12 mice
Text: Each experiment was done in quadruplicate. Twelve mice were used in each replicate. For each replicate, the four treatment groups were made of 3 mice (3 animals per cage). Each mouse received under the skin of each flank one HPV-11-infected foreskin fragment. Two foreskin donors were used, one for the fragments implanted under the left flank and a different one for the fragments implanted under the right flank. The HPV-11-infected grafts were left to grow for 12 weeks, while the mice weights were monitored every other week. At the end of the 12 weeks, the animals were sacrificed and the grafts recovered, measured and processed.
Six to 7 week old male scid/scid mice were used
The animals were monitored weekly. They were weighed at the time of grafting, and every other week during the 12 weeks of the experiment.
Animals were to be prematurely euthanitized if during monitoring any of the following criteria were met: • greater than 10% weight loss; • bleeding or bruising; • inability to maintain righting reflex; • inability to move about; • inability to eat or drink; • tumor greater than 30% of the animal's body weight.
The animals were otherwise sacrificed by cervical dislocation 12 weeks after graft implantation. Length, width, and height of the graft were measured and recorded. The graft were then removed and split in at least two parts. One part was fixed in buffered formalin. The other part was either left as is, or subdivided for subsequent analyses in as many fragments as size permitted. These fragments were placed in a sterile labelled vial and frozen in liquid nitrogen before being transferred to a −80° C. freezer.
Those animals dying unexpectedly before the date of the scheduled euthanasia had their grafts measured and fixed in formalin, if body decomposition was not too advanced.

[5] = virus treated 1 hr at 0.625 mg/ml
[6] = virus treated 1 hr at 1.25 mg/ml
[7] = virus treated 1 hr at 2.5 mg/ml
[8] = even at the highest concentration tested (5 μg/ml)
[9] = culture with final dilution of the 0.625 mg/ml (residual 0.3 μg/ml)
[10] = culture with final dilution of the 1.25 mg/ml (residual 0.6 μg/ml)
[11] = culture with final dilution of the 2.5 mg/ml column (residual 1.25 μg/ml)
[12] = culture with final dilution of the 5 mg/ml column (residual 2.5 μg/ml)
[13] = culture with final dilution of the 10 mg/ml column (residual 5 μg/ml)
[14] = final dilution of the 0.625 mg/ml column (residual 0.3 μg/ml)
[15] = final dilution of the 1.25 mg/ml column (residual 0.6 μg/ml)
[16] = final dilution of the 2.5 mg/ml column (residual 1.25 μg/ml)
[17] = final dilution of the 5 mg/ml column (residual 2.5 μg/ml)
[18] = final dilution of the 10 mg/ml column (residual 5 μg/ml)

With `CC1=CC(C)=[N+]2CC[N+]3=C(C)C=C(C)[O][Co-4]23([n+]2cc[nH]c2C)([n+]2cc[nH]c2C)[O]1.[Br-]` [Compound 96] the inhibited adenovirus infection (adenovirus) was 100%, the “inhibited varicella-zoster virus infection” value (varicella-zoster virus) was > 98% and the reduction in infectivity ([1]; any drug-treated sample vs control infection (800-1200 infected cells per well)) was ≥ 1,000 fold. The “infected cells when the entire well was scanned” value ([1]; any of the drug-treated samples) was “No infected cells were detected”, the “inactivation of treated virus” value ([1]; even at the lowest concentration of drug tested (0.625 mg/ml), 1 hr treatment) was “completely inactivated” and the “Average # infected cells/area” value [1, 5] was 0 cells/area. For the same compound, the “# infected cells/area (~500 cells)” value [1, 5] was 0 cells/area, the “Average # infected cells/area” value [1, 6] was 0 cells/area and the “# infected cells/area (~500 cells)” value [1, 6] was 0 cells/area. The “Average # infected cells/area” value [1, 7] was 0 cells/area, the “# infected cells/area (~500 cells)” value [1, 7] was 0 cells/area and the “Average # infected cells/area” value ([1]; virus treated 1 hr at 5 mg/ml) was 0 cells/area. For the same compound, the “# infected cells/area (~500 cells)” value ([1]; virus treated 1 hr at 5 mg/ml) was 0 cells/area, the “Average # infected cells/area” value ([1]; virus treated 1 hr at 10 mg/ml) was 0 cells/area and the “# infected cells/area (~500 cells)” value ([1]; virus treated 1 hr at 10 mg/ml) was 0 cells/area. For the same compound, the “toxicity or inhibition in control cultures receiving the diluted drugs” value [2, 8] was “No toxicity or inhibition”, the “Control culture: # infected cells/area (~500 cells)” value [2, 9] was 17 cells/area and 16 cells/area and 18 cells/area and the “Control culture: # infected cells/area (~500 cells)” value [2, 10] was 16 cells/area and 15 cells/area and 17 cells/area and 18 cells/area. For the same compound, the “Control culture: # infected cells/area (~500 cells)” value [2, 11] was 17 cells/area and 18 cells/area and 15 cells/area and 16 cells/area, the “Control culture: # infected cells/area (~500 cells)” value [2, 12] was 16 cells/area and 17 cells/area and 15 cells/area and 18 cells/area and the “Control culture: # infected cells/area (~500 cells)” value [2, 13] was 15 cells/area and 16 cells/area and 17 cells/area. The “Control culture: Average # infected cells/area” value [2, 14] was 16.50 cells/area, the “Control culture: Average # infected cells/area” value [2, 15] was 16.38 cells/area and the “Control culture: Average # infected cells/area” value [2, 16] was 16.50 cells/area. The “Control culture: Average # infected cells/area” value [2, 17] was 16.25 cells/area, the “Control culture: Average # infected cells/area” value [2, 18] was 16.00 cells/area and the “toxicity or inhibition in control cultures receiving the diluted drugs” value [3, 8] was “No toxicity or inhibition”. The “Control culture: # infected cells/area (~500 cells)” value [3, 9] was 11 cells/area and 10 cells/area, the “Control culture: # infected cells/area (~500 cells)” value [3, 10] was 9 cells/area and 8 cells/area and 11 cells/area and 10 cells/area and the “Control culture: # infected cells/area (~500 cells)” value [3, 11] was 10 cells/area and 11 cells/area. The “Control culture: # infected cells/area (~500 cells)” value [3, 12] was 10 cells/area and 8 cells/area and 9 cells/area, the “Control culture: # infected cells/area (~500 cells)” value [3, 13] was 10 cells/area and 9 cells/area and 11 cells/area and the “Control culture: Average # infected cells/area” value [3, 14] was 10.3 cells/area. For the same compound, the “Control culture: Average # infected cells/area” value [3, 15] was 9.5 cells/area, the “Control culture: Average # infected cells/area” value [3, 16] was 10.3 cells/area and the “Control culture: Average # infected cells/area” value [3, 17] was 8.8 cells/area. For the same compound, the “Control culture: Average # infected cells/area” value [3, 18] was 9.8 cells/area, the “Mouse Survival, Lower Quartile” value ([4]; CTC 96 0.05%) was 84.00 days and the “Mouse Survival, Means” value ([4]; CTC 96 0.05%) was 83.167 days. The “Mouse Survival, Median” value ([4]; CTC 96 0.05%) was 84.00 days, the “Mouse Survival, Upper Quartile” value ([4]; CTC 96 0.05%) was 84.00 days and the “Mouse Weight Changes during the Experiment, Lower Quartile” value ([4]; CTC 96 0.05%) was 12.32%. For the same compound, the “Mouse Weight Changes during the Experiment, Means” value ([4]; CTC 96 0.05%) was 13.12%, the “Mouse Weight Changes during the Experiment, Median” value ([4]; CTC 96 0.05%) was 14.16% and the “Mouse Weight Changes during the Experiment, Upper Quartile” value ([4]; CTC 96 0.05%) was 15.62%. The “Mouse Status at the end of the Experiment: Alive” value (“Mouse Status at the end … Alive” below) ([4]; CTC 96 0.05%) was 11, the “Mouse Status at the end of the Experiment: Dead” value (“Mouse Status at the end … Dead” for short) ([4]; CTC 96 0.05%) was 1 and the “Mouse Survival, Lower Quartile” value ([4]; CTC 96 0.2%) was 57.50 days. For the same compound, the “Mouse Survival, Means” value ([4]; CTC 96 0.2%) was 69.83 days, the “Mouse Survival, Median” value ([4]; CTC 96 0.2%) was 84.00 days and the “Mouse Survival, Upper Quartile” value ([4]; CTC 96 0.2%) was 84.00 days. The “Mouse Weight Changes during the Experiment, Lower Quartile” value ([4]; CTC 96 0.2%) was 11.48%, the “Mouse Weight Changes during the Experiment, Means” value ([4]; CTC 96 0.2%) was 15.77% and the “Mouse Weight Changes during the Experiment, Median” value ([4]; CTC 96 0.2%) was 11.77%. The “Mouse Weight Changes during the Experiment, Upper Quartile” value ([4]; CTC 96 0.2%) was 24.80%, the “Mouse Status at the end … Alive” value ([4]; CTC 96 0.2%) was 8 and the “Mouse Status at the end … Dead” value ([4]; CTC 96 0.2%) was 4. For the same compound, the “Mouse Survival, Lower Quartile” value ([4]; CTC 96 1%) was 84.00 days, the “Mouse Survival, Means” value ([4]; CTC 96 1%) was 84.00 days and the “Mouse Survival, Median” value ([4]; CTC 96 1%) was 84.00 days. For the same compound, the “Mouse Survival, Upper Quartile” value ([4]; CTC 96 1%) was 84.00 days, the “Mouse Weight Changes during the Experiment, Lower Quartile” value ([4]; CTC 96 1%) was 5.926% and the “Mouse Weight Changes during the Experiment, Means” value ([4]; CTC 96 1%) was 9.96%. For the same compound, the “Mouse Weight Changes during the Experiment, Median” value ([4]; CTC 96 1%) was 9.00%, the “Mouse Weight Changes during the Experiment, Upper Quartile” value ([4]; CTC 96 1%) was 12.40% and the “Mouse Status at the end … Alive” value ([4]; CTC 96 1%) was 12. The “Mouse Status at the end … Dead” value ([4]; CTC 96 1%) was 0, the “effect on mouse weight gain” value ([4]; all treatment groups, drug used only to inactivate HPV-11 in vitro) was “no effect” and the “effect on mouse mortality (number of deaths, length of survival)” value ([4]; all treatment groups, drug used only to inactivate HPV-11 in vitro, listed as CTC 96) was “no differences among the treatment groups; also recorded: no effect”.
